Earlier results, collected in patent publication US20060186374A1, “Hydrophobic propellant gas mixtures for producing insulating foams” (priority 2003, published 2006).

Details: octanol/water, decadic logarithm

log PO/W | Compound
1.06 | FCC(F)(F)F [R134a, 1,1,1,2-tetrafluoroethane]
1.35 | FC(F)CC(F)(F)F [R245fa, 1,1,1,3,3-pentafluoropropane]
0.75 | CC(F)F [R152a, 1,1-difluoroethane]
2.5 | FC(C(F)(F)F)C(F)(F)F [R227ea, 1,1,1,2,3,3,3-heptafluoropropane]

Second part, the molecule before the results:

Compound | log PO/W
CC(F)(F)CC(F)(F)F [R365mfc, 1,1,1,3,3-pentafluorobutane] | 1.6
CC(C)C [i-butane] | 2.8
COC [DME, dimethyl ether] | 0.1
CCC [Propane, propane] | 2.3
